Results reported in PubChem BioAssay AID2060500 (Molecular Pharmacology Branch, DTP, NCI, 2025).

System: 596521-263-R-J1-PDC complex spheroids, viability % of control
Assay: Anticancer human tumor 596521-263-R-J1-PDC patient-derived soft tissue sarcoma cell line growth inhibition [GQUAD]
Settings: for IC50: curve of first compound; for viability, T/C: stronger effect = lower value
Procedure, shortened: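 Viability of tumor cells grown as complex spheroids with endothelial and stromal cells, exposed to drug combinations. Top concentration at or near clinical Cmax (else 10 microM), diluted in half-log increments.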

[1] = second compound 0.0316 µM, first compound 0.0316 µM
[2] = second compound 0.0316 µM, first compound 0.1 µM
[3] = second compound 0.0316 µM, first compound 0.316 µM
[4] = second compound 0.0316 µM, first compound 1 µM
[5] = second compound 0.0316 µM, first compound 3.16 µM
[6] = second compound 0.0316 µM, first compound 10 µM
[7] = second compound 0.1 µM, first compound 0.0316 µM
[8] = second compound 0.1 µM, first compound 0.1 µM
[9] = second compound 0.1 µM, first compound 0.316 µM
[10] = second compound 0.1 µM, first compound 1 µM
[11] = second compound 0.1 µM, first compound 3.16 µM
[12] = second compound 0.1 µM, first compound 10 µM
[13] = second compound 0.316 µM, first compound 0.0316 µM
[14] = second compound 0.316 µM, first compound 0.1 µM
[15] = second compound 0.316 µM, first compound 0.316 µM
[16] = second compound 0.316 µM, first compound 1 µM
[17] = second compound 0.316 µM, first compound 3.16 µM
[18] = second compound 0.316 µM, first compound 10 µM
[19] = second compound 1 µM, first compound 0.0316 µM
[20] = second compound 1 µM, first compound 0.1 µM
[21] = second compound 1 µM, first compound 0.316 µM
[22] = second compound 1 µM, first compound 1 µM
[23] = second compound 1 µM, first compound 3.16 µM
[24] = second compound 1 µM, first compound 10 µM
[25] = second compound 3.16 µM, first compound 0.0316 µM
[26] = second compound 3.16 µM, first compound 0.1 µM
[27] = second compound 3.16 µM, first compound 0.316 µM
[28] = second compound 3.16 µM, first compound 1 µM
[29] = second compound 3.16 µM, first compound 3.16 µM
[30] = second compound 3.16 µM, first compound 10 µM
[31] = second compound 10 µM, first compound 0.0316 µM
[32] = second compound 10 µM, first compound 0.1 µM
[33] = second compound 10 µM, first compound 0.316 µM
[34] = second compound 10 µM, first compound 1 µM
[35] = second compound 10 µM, first compound 3.16 µM
[36] = second compound 10 µM, first compound 10 µM
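Note: spheroids exposed to drugs for 7 days before viability reading.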
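Throughout, for viability, T/C: 100% = DMSO vehicle control viability.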

With `CC(C)n1c(=O)n(C)c2cnc3cc(F)c(-c4ccc(OCCCN5CCCCC5)nc4)cc3c21` + Cc1cnc(CNC(=O)c2c(=O)c3ccc(N4CCCN(C)CC4)nc3n3c2sc2ccccc23)cn1 the IC50 (second compound 0.0316 µM) was greater than 10 µM, the IC50 (second compound 0.1 µM) was greater than 10 µM and the IC50 (second compound 0.316 µM) was greater than 10 µM. It also gave an IC50 (second compound 1 µM) greater than 10 µM, an IC50 (second compound 3.16 µM) of 0.224 µM and an IC50 (second compound 10 µM) of less than 0.0316 µM. The viability, T/C [1] was 82.1%, the viability, T/C [2] was 67% and the viability, T/C [3] was 78.3%. The viability, T/C [4] was 73%, the viability, T/C [5] was 75.5% and the viability, T/C [6] was 61.9%. It also gave a viability, T/C [7] of 70.6%, a viability, T/C [8] of 61.3% and a viability, T/C [9] of 68.2%. It also gave a viability, T/C [10] of 63.9%, a viability, T/C [11] of 58.6% and a viability, T/C [12] of 57.8%. The viability, T/C [13] was 69.3%, the viability, T/C [14] was 67.3% and the viability, T/C [15] was 63.5%. For the same compound, the viability, T/C [16] was 62.5%, the viability, T/C [17] was 62.4% and the viability, T/C [18] was 47.6%. The viability, T/C [19] was 63.8%, the viability, T/C [20] was 61.8% and the viability, T/C [21] was 52.3%. The viability, T/C [22] was 54.3%, the viability, T/C [23] was 64.4% and the viability, T/C [24] was 48.3%. The viability, T/C [25] was 51.6%, the viability, T/C [26] was 53.3% and the viability, T/C [27] was 49.7%. The viability, T/C [28] was 46.4%, the viability, T/C [29] was 42.5% and the viability, T/C [30] was 40.3%. The viability, T/C [31] was 51.8%, the viability, T/C [32] was 44.7% and the viability, T/C [33] was 44.9%. It also gave a viability, T/C [34] of 44.9%, a viability, T/C [35] of 46.7% and a viability, T/C [36] of 9.8%.

`CCc1c2c(nc3ccc(O)cc13)-c1cc3c(c(=O)n1C2)COC(=O)[C@]3(O)CC` + CN(C)c1ccc(Nc2c3ccc(NC(=O)CCN4CCCC4)cc3nc3cc(NC(=O)CCN4CCCC4)ccc23)cc1 was tested, and the IC50 (second compound 0.0316 µM) was 0.00508 µM, the IC50 (second compound 0.1 µM) was 0.00406 µM and the IC50 (second compound 0.316 µM) was 0.00351 µM. For the same compound, the IC50 (second compound 1 µM) was 0.00744 µM, the IC50 (second compound 3.16 µM) was 0.00564 µM and the IC50 (second compound 10 µM) was 0.00375 µM. It also gave a viability, T/C (second compound 0.0316 µM, first compound 0.000999 µM) of 66.2%, a viability, T/C (second compound 0.0316 µM, first compound 0.00316 µM) of 54.6% and a viability, T/C (second compound 0.0316 µM, first compound 0.00999 µM) of 43.2%. For the same compound, the viability, T/C [1] was 28.7%, the viability, T/C (second compound 0.0316 µM, first compound 0.0999 µM) was 16.5% and the viability, T/C [3] was 7.38%. The viability, T/C (second compound 0.1 µM, first compound 0.000999 µM) was 60.4%, the viability, T/C (second compound 0.1 µM, first compound 0.00316 µM) was 51.8% and the viability, T/C (second compound 0.1 µM, first compound 0.00999 µM) was 41.3%. The viability, T/C [7] was 28.5%, the viability, T/C (second compound 0.1 µM, first compound 0.0999 µM) was 15.6% and the viability, T/C [9] was 9.53%. For the same compound, the viability, T/C (second compound 0.316 µM, first compound 0.000999 µM) was 61.8%, the viability, T/C (second compound 0.316 µM, first compound 0.00316 µM) was 50.7% and the viability, T/C (second compound 0.316 µM, first compound 0.00999 µM) was 39.1%. The viability, T/C [13] was 28.9%, the viability, T/C (second compound 0.316 µM, first compound 0.0999 µM) was 15.4% and the viability, T/C [15] was 8.17%. The viability, T/C (second compound 1 µM, first compound 0.000999 µM) was 61.1%, the viability, T/C (second compound 1 µM, first compound 0.00316 µM) was 57% and the viability, T/C (second compound 1 µM, first compound 0.00999 µM) was 47.5%. It also gave a viability, T/C [19] of 32.3%, a viability, T/C (second compound 1 µM, first compound 0.0999 µM) of 16.7% and a viability, T/C [21] of 7.43%. The viability, T/C (second compound 3.16 µM, first compound 0.000999 µM) was 58.6%, the viability, T/C (second compound 3.16 µM, first compound 0.00316 µM) was 54.7% and the viability, T/C (second compound 3.16 µM, first compound 0.00999 µM) was 46.6%. For the same compound, the viability, T/C [25] was 31.1%, the viability, T/C (second compound 3.16 µM, first compound 0.0999 µM) was 21.4% and the viability, T/C [27] was 9.32%. For the same compound, the viability, T/C (second compound 10 µM, first compound 0.000999 µM) was 52.9%, the viability, T/C (second compound 10 µM, first compound 0.00316 µM) was 52.7% and the viability, T/C (second compound 10 µM, first compound 0.00999 µM) was 44%. The viability, T/C [31] was 32.6%, the viability, T/C (second compound 10 µM, first compound 0.0999 µM) was 20.9% and the viability, T/C [33] was 9.92%.

`O=C(NO)c1cnc(N2CCN(S(=O)(=O)c3ccc4ccccc4c3)CC2)nc1` + Cc1cnc(CNC(=O)c2c(=O)c3ccc(N4CCCN(C)CC4)nc3n3c2sc2ccccc23)cn1 gave an IC50 (second compound 0.0316 µM) of 0.111 µM, an IC50 (second compound 0.1 µM) of 0.102 µM and an IC50 (second compound 0.316 µM) of 0.11 µM. The IC50 (second compound 1 µM) was 0.104 µM, the IC50 (second compound 3.16 µM) was less than 0.0316 µM and the IC50 (second compound 10 µM) was less than 0.0316 µM. It also gave a viability, T/C [1] of 74.7%, a viability, T/C [2] of 53.5% and a viability, T/C [3] of 13%. For the same compound, the viability, T/C [4] was 0.6%, the viability, T/C [5] was 0.3% and the viability, T/C [6] was 0.28%. For the same compound, the viability, T/C [7] was 71.5%, the viability, T/C [8] was 50.3% and the viability, T/C [9] was 17.4%. It also gave a viability, T/C [10] of 0.78%, a viability, T/C [11] of 0.32% and a viability, T/C [12] of 0.29%. For the same compound, the viability, T/C [13] was 66.5%, the viability, T/C [14] was 52.4% and the viability, T/C [15] was 19.1%. For the same compound, the viability, T/C [16] was 0.46%, the viability, T/C [17] was 0.21% and the viability, T/C [18] was 0.18%. The viability, T/C [19] was 53.9%, the viability, T/C [20] was 50.6% and the viability, T/C [21] was 19.6%. The viability, T/C [22] was 0.17%, the viability, T/C [23] was 0.77% and the viability, T/C [24] was 1.29%. The viability, T/C [25] was 48.6%, the viability, T/C [26] was 42.5% and the viability, T/C [27] was 16.1%. It also gave a viability, T/C [28] of 0.13%, a viability, T/C [29] of 0.4% and a viability, T/C [30] of 0.75%. For the same compound, the viability, T/C [31] was 23.6%, the viability, T/C [32] was 13.2% and the viability, T/C [33] was 0.25%. For the same compound, the viability, T/C [34] was 0.16%, the viability, T/C [35] was 0.89% and the viability, T/C [36] was 0.27%.

With `COc1cccc2c1C(=O)c1c(O)c3c(c(O)c1C2=O)CC(O)(C(=O)CO)CC3OC1CC(N)C(O)C(C)O1` (stereo not drawn) + Cc1[nH]c2ccc(F)cc2c1-c1nc2c3cccnc3c3ncccc3c2[nH]1 the IC50 (second compound 0.0316 µM) was 0.719 µM, the IC50 (second compound 0.1 µM) was 0.655 µM and the IC50 (second compound 0.316 µM) was 0.802 µM. It also gave an IC50 (second compound 1 µM) of 0.578 µM, an IC50 (second compound 3.16 µM) of 0.965 µM and an IC50 (second compound 10 µM) of 0.7 µM. The viability, T/C [1] was 98%, the viability, T/C [2] was 76.6% and the viability, T/C [3] was 64%. The viability, T/C [4] was 48.9%, the viability, T/C [5] was 26.6% and the viability, T/C [6] was 3.55%. For the same compound, the viability, T/C [7] was 93.8%, the viability, T/C [8] was 77% and the viability, T/C [9] was 57.9%. For the same compound, the viability, T/C [10] was 44.9%, the viability, T/C [11] was 29.7% and the viability, T/C [12] was 4.66%. For the same compound, the viability, T/C [13] was 112%, the viability, T/C [14] was 70.3% and the viability, T/C [15] was 68%. For the same compound, the viability, T/C [16] was 54.5%, the viability, T/C [17] was 27.1% and the viability, T/C [18] was 3.9%. The viability, T/C [19] was 96.5%, the viability, T/C [20] was 66.5% and the viability, T/C [21] was 59.2%. The viability, T/C [22] was 50.4%, the viability, T/C [23] was 25.6% and the viability, T/C [24] was 4.37%. For the same compound, the viability, T/C [25] was 82.7%, the viability, T/C [26] was 68.9% and the viability, T/C [27] was 63.2%. The viability, T/C [28] was 54.9%, the viability, T/C [29] was 25.7% and the viability, T/C [30] was 3.86%. For the same compound, the viability, T/C [31] was 75.1%, the viability, T/C [32] was 62.4% and the viability, T/C [33] was 62.6%. It also gave a viability, T/C [34] of 45.9%, a viability, T/C [35] of 25.6% and a viability, T/C [36] of 3.33%.
